# Like-named read-outs stand apart in the source and are kept apart here.
# How the values were obtained:
# [1] = tested on: empty vector-transformed leaf discs; experiment: PSII yield inhibition (chlorophyll fluorescence, imaging PAM) in empty vector-transformed tobacco leaf discs; assay type: cell-based; details: Nicotiana benthamiana, read-out: IC50 of PSII yield inhibition
# [2] = tested on: mutated PPO sequences (e.g. SEQ ID NOs: 1, 30, 31, 11, 37, and 117) as wildtype or with respective mutations, expressed in leaf discs; experiment: Herbicide tolerance of transiently transformed tobacco leaf discs expressing wildtype or mutated PPO: tolerance factors from IC50 of PSII yield inhibition versus empty vector; assay type: cell-based, Nicotiana benthamiana; details: 48 h herbicide treatment
smiles,measurement,setting,value
"C#CCN1C(=O)C(F)(F)Oc2cc(F)c(-n3c(=O)n(C)c(=S)n(C)c3=O)cc21 [1,5-dimethyl-6-thioxo-3-(2,2,7-trifluoro-3-oxo-4-(prop-2-ynyl)-3,4-dihydro-2H-benzo[b][1,4]oxazin-6-yl)-1,3,5-triazinane-2,4-dione]",IC50,"[1]; empty vector-transformed leaf discs, treated for 48 h",11 nM
same,"Tolerance factor (IC50 of PSII yield inhibition, transformed versus empty vector-transformed leaf discs)","[2]; Bn_PPO2_A_L371E_F394M, Brassica napus, SEQ ID 117",10
same,"Tolerance factor (IC50 of PSII yield inhibition, transformed versus empty vector-transformed leaf discs)","[2]; Bn_PPO2_A_L371E_F394V, Brassica napus, SEQ ID 117",13
same,"Tolerance factor (IC50 of PSII yield inhibition, transformed versus empty vector-transformed leaf discs)","[2]; Bn_PPO2_A_L371Q_F394M, Brassica napus, SEQ ID 117",10
same,"Tolerance factor (IC50 of PSII yield inhibition, transformed versus empty vector-transformed leaf discs)","[2]; Bn_PPO2_A_L371Q_F394V, Brassica napus, SEQ ID 117",14
same,"Tolerance factor (IC50 of PSII yield inhibition, transformed versus empty vector-transformed leaf discs)","[2]; Bn_PPO2_A_R99A_F394V, Brassica napus, SEQ ID 117",1
same,"Tolerance factor (IC50 of PSII yield inhibition, transformed versus empty vector-transformed leaf discs)","[2]; Bn_PPO2_A_wt, Brassica napus, SEQ ID 117",1
same,"Tolerance factor (IC50 of PSII yield inhibition, transformed versus empty vector-transformed leaf discs)","[2]; Gm_PPO2_L367E_F390M, Glycine max, SEQ ID 11",50
same,"Tolerance factor (IC50 of PSII yield inhibition, transformed versus empty vector-transformed leaf discs)","[2]; Gm_PPO2_L367E_F390V, Glycine max, SEQ ID 11",15
same,"Tolerance factor (IC50 of PSII yield inhibition, transformed versus empty vector-transformed leaf discs)","[2]; Gm_PPO2_L367Q_F390M, Glycine max, SEQ ID 11",14
same,"Tolerance factor (IC50 of PSII yield inhibition, transformed versus empty vector-transformed leaf discs)","[2]; Gm_PPO2_L367Q_F390V, Glycine max, SEQ ID 11",26
same,"Tolerance factor (IC50 of PSII yield inhibition, transformed versus empty vector-transformed leaf discs)","[2]; Gm_PPO2_R98A_F390V, Glycine max, SEQ ID 11",14
same,"Tolerance factor (IC50 of PSII yield inhibition, transformed versus empty vector-transformed leaf discs)","[2]; Gm_PPO2_wt, Glycine max, SEQ ID 11",1
same,"Tolerance factor (IC50 of PSII yield inhibition, transformed versus empty vector-transformed leaf discs)","[2]; Os_PPO2_L374E_F397M, Oryza sativa, SEQ ID 37",2454
same,"Tolerance factor (IC50 of PSII yield inhibition, transformed versus empty vector-transformed leaf discs)","[2]; Os_PPO2_L374E_F397V, Oryza sativa, SEQ ID 37",43
same,"Tolerance factor (IC50 of PSII yield inhibition, transformed versus empty vector-transformed leaf discs)","[2]; Os_PPO2_L374Q_F397M, Oryza sativa, SEQ ID 37",14
same,"Tolerance factor (IC50 of PSII yield inhibition, transformed versus empty vector-transformed leaf discs)","[2]; Zm_PPO2_L410E_F433M, Zea mays, SEQ ID 30, 31",8766
same,"Tolerance factor (IC50 of PSII yield inhibition, transformed versus empty vector-transformed leaf discs)","[2]; Zm_PPO2_L410Q_F433M, Zea mays, SEQ ID 30, 31",385
same,"Tolerance factor (IC50 of PSII yield inhibition, transformed versus empty vector-transformed leaf discs)","[2]; Zm_PPO2_L410Q_F433V, Zea mays, SEQ ID 30, 31",15
same,"Tolerance factor (IC50 of PSII yield inhibition, transformed versus empty vector-transformed leaf discs)","[2]; Zm_PPO2_R130A_F433V, Zea mays, SEQ ID 30, 31",8766
"CC(C)N(C)S(=O)(=O)NC(=O)c1cc(-n2c(=O)cc(C(F)(F)F)n(C)c2=O)c(F)cc1Cl [Saflufenacil, saflufenacil]",IC50,[1]; 48 h,110 nM
